Results on two compounds are retold here after patent US10813929B2, “Treating cancer with ATR inhibitors” (VERTEX PHARMACEUTICALS INCORPORATED, priority 2011, dated 2020).

Common to all, as to type: cell-based
For test [1], the system named is HeLa, PSN1, MiaPaca cells. The test can be described thus: Radiosensitivity assays of FIGS. 8 to 12 (clonogenic survival, foci, cell cycle). The procedure:
Small scale clonogenic survival assays were performed on HeLa cells treated with the different ATR inhibitors at increasing concentrations followed by irradiation at 6 Gy. Data is plotted as decrease in clonogenic survival in relation to the DMSO-treated cells for both irradiated (SF 6 Gy, pink line) and unirradiated cells (plating efficiency, PE; blue line). A high degree of increased radiosensitivity can be seen as a large decrease in survival after irradiation accompanied by a small decrease in unirradiated survival at a specific drug concentration.
FIG. 9. […] PSN1 and MiaPaca cells were plated at low densities, treated with the drugs indicated and assessed for clonogenic survival. • B) Clonogenic survival of PSN1, MiaPaca, and MRCS cells pretreated with Compounds 821, 822, 823 and 824 drugs followed by irradiation. Cells were plated at low densities, treated with drugs indicated 1 h prior to irradiation and assessed for clonogenic survival.
MiaPaca cells were plated at low densities and drug was added at various time points in relation to the 4 Gy radiation treatment: 1 h prior to IR, 5 min after IR, 2 h or 4 h after IR; and removed at various time points. […] Clonogenic survival was assessed after 14 days. […]
FIG. 11. […] The percentage of cells containing more than a certain number of foci was quantitated. • B) Time course of DNA damage foci. […]

Test [2] deals with DNA damage foci and RAD51 foci. The experiment in a line: Nuclear foci analysis (γH2AX, 53BP1, RAD51). The settings on record: 1 μM VE-821, 6 Gy. As for the experimental part: Cells were treated with 1 μM VE-821 at various time points in relation to 6 Gy irradiation, as indicated, and fixed at 24 h post-irradiation. Subsequently, cells were stained for (A) γH2AX and (B) 53BP1 foci and the percentage of cells with more than 7 and 5 foci per cell was quantitated, respectively. C, for analysing Rad51 foci formation, cells were fixed at 6 h post-irradiation and the percentage of cells with more than 9 foci per cell was quantitated. Representative images are shown on the right (n=3). *, P<0.05 Cells growing in 96-well plates were treated with 1 μM VE-821 drug 1 h prior to 6 Gy irradiation and fixed in 3% formaldehyde at multiple time points. Cells were subsequently pearmeabalised and blocked in PBS with 0.1% Triton 1% BSA (w/v). Cells were incubated with primary antibody overnight at 4° C. and after a PBS wash incubated with fluorescently labeled secondary antibody followed gy a PBS wash and nuclear staining with DAPI. Images were acquired and foci quantitated using an IN Cell Analyzer 1000 automated epifluorescence microscope and analysis software (GE Healthcare, Cahlfont St. Giles, UK)

The test system of a further test is MRCS fibroblasts. The test can be described thus: Cell viability assay (Alamar Blue) with irradiation, normal cells. Conditions: VE-821 for 96 h with or without 4 Gy; viability after 8 days; FIG. 1 panel B. As for the experimental part: PSN-1, Panc-1, MiaPaCa-2 pancreatic cancer cell lines and MRCS fibroblasts were treated with increasing concentrations of VE-821 for 96 h combined with or without 4 Gy radiation at 1 h after VE-821 addition. Cell viability was measured after 8 days and shown as normalized to DMSO-treated cells. MiaPaCa-2, PSN-1, Panc1 and MRCS cells (5×104) were plated in 96-well plates and after 4 h treated with increasing concentrations of VE-821 at 1 h before irradiation with a single dose of 6 Gy. Medium was replaced 96 h post-irradiation at which point viability was measured using the using the Alamar Blue assay (Resazurin substrate, SIGMA). Cells were allowed to proliferate and cell viability was again analyzed at day 8 for the different treatment conditions. Cell viability and surviving fraction were normalized to the untreated (control) group.
On the technique in general: Alamar Blue is a resazurin reagent that responds to reducing activity.

Take `CNCc1ccc(-c2cc(-c3nc(-c4ccc(S(=O)(=O)C(C)C)cc4)cnc3N)on2)cc1` [VE-822]: the “sensitization of cancer cells to radiation therapy” value in test [1] is reported as “sensitize cancer cells to radiation therapy”.
On to `CS(=O)(=O)c1ccc(-c2cnc(N)c(C(=O)Nc3ccccc3)n2)cc1` [VE-821], for which, in test [1], the “sensitization of cancer cells to radiation therapy” value was “sensitize cancer cells to radiation therapy”. In addition, the RAD51 foci formation result in test [2] (fixed 6 h post-irradiation, FIG. 5) is recorded as “reduces RAD51 foci formation”. In addition, the “53BP1 and γH2AX foci number” value in test [2] (fixed 24 h post-irradiation, FIG. 5) was “increases 53BP1 and γH2AX foci number”. The “repair of DNA damage by homologous recombination” value in test [2] (FIG. 5 panels A, B, C) is “inhibits repair of DNA damage by homologous recombination”. Besides, the “radiosensitisation of normal cells (cell viability)” value in the test with MRCS fibroblasts was “not normal cells”.
